Test results: patent publication US11324708B1 (UNION therapeutics A/S, priority 2020, dated 2022)
pEC50: −log10 of the molar value.

Tests used:
SARS-CoV-2 = SARS-CoV-2 in Vero E6 cells; cited from earlier work
asthmatic mice = conditions: niclosamide dissolved in corn oil, I.P. injection; cited from earlier work
[1] = tested on: ATCC 29213, MRSA 434844 and S. aureus Newman; test: Spot test on LB agar, statements for all three strains; assay type: cell-based; conditions: for bacterial load in repeated spot test, API in DMSO: only the highest concentrations (niclosamide 100 μg/mL, oxyclozanide 40 μg/mL; 200×-400× MIC of Niclo, 180× MIC Oxy)
Experimental: Following incubation, the formed colonies were counted. […] Duplicates were performed.
As both positive controls were negative further the experiment was repeated using different concentrations in a spot test using the same methodology described above.
In this experiment the negative control was the bacterial suspension only.

[2] = oral 2 g/day dose
all targeted strains = test: Minimum Inhibitory Concentration (MIC) assay, all targeted strains; conditions: read-out: MIC against all targeted strains
SARS-CoV = conditions: Vero E6 cells; read-out: EC50 of SARS-CoV replication; cited from earlier work
TMEM 116F = biological target: T1, TMEM 116F (Homo sapiens, UniProt Q4KMQ2); conditions: cited from earlier work
T1 sequence (Q4KMQ2 1-910): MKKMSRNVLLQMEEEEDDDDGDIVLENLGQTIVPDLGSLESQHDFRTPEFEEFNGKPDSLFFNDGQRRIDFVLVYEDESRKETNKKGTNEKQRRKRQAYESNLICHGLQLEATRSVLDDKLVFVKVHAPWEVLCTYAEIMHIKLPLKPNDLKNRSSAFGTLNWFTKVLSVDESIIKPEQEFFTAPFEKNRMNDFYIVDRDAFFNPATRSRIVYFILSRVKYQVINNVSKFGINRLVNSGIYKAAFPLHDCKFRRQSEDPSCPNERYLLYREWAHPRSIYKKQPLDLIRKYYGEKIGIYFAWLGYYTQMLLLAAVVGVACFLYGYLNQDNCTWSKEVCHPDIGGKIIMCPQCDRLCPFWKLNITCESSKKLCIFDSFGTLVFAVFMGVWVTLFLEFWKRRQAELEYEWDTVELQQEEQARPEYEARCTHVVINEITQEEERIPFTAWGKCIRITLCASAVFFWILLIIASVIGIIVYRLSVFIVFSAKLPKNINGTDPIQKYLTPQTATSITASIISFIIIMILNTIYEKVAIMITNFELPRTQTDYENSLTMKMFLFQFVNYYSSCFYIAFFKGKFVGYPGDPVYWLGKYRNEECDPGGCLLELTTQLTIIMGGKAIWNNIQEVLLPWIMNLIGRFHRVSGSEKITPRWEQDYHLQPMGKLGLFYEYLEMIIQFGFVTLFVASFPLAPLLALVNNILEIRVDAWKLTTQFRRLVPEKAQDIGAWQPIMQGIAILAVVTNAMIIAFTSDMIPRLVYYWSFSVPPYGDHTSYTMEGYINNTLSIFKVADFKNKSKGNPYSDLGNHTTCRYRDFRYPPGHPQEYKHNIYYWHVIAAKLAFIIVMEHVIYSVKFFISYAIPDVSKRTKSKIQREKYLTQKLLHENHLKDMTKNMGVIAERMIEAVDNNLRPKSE

in vivo = conditions: sheep
TMEM16A = biological target: T2, TMEM16A (Homo sapiens, UniProt Q5XXA6); conditions: cited from earlier work
T2 sequence (Q5XXA6 1-986): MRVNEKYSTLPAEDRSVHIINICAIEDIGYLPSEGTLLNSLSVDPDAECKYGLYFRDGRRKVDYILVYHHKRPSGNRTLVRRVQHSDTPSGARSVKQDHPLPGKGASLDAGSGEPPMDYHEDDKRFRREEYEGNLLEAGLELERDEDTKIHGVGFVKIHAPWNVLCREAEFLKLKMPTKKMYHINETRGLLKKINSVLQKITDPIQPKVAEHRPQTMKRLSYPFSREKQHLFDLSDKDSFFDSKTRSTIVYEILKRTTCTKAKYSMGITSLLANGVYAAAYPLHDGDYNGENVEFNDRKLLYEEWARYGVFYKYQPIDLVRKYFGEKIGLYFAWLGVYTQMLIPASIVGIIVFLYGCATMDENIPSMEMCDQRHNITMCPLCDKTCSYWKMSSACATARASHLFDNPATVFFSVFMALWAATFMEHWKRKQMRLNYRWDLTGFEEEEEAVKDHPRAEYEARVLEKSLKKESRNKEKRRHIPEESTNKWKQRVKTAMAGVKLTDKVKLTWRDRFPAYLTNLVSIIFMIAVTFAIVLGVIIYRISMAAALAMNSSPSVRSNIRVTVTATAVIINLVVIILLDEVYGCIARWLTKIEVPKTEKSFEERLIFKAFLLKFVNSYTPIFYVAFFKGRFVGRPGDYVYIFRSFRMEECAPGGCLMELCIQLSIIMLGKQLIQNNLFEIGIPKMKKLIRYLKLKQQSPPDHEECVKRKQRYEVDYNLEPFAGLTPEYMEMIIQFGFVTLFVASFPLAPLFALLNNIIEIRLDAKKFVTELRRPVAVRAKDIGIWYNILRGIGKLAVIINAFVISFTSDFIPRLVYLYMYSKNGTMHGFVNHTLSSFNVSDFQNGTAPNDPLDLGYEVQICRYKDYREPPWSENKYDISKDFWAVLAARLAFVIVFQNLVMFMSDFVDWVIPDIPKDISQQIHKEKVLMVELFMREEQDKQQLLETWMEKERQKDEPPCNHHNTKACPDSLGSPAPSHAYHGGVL

CC(=O)Oc1ccccc1C(=O)Nc1ncc([N+](=O)[O-])s1 [nitazoxanide]
pEC50 (SARS-CoV-2): 5.67

CCN(CC)CCCC(C)Nc1ccnc2cc(Cl)ccc12 (stereo not shown) [chloroquine]
pEC50 (SARS-CoV-2): 5.95

O=C(Nc1ccc([N+](=O)[O-])cc1Cl)c1cc(Cl)ccc1O [niclosamide]
effect in asthmatic mice (asthmatic mice): reduced mucus production and secretion, as well as bronchoconstriction | bacterial load in repeated spot test, API in DMSO [1]: substantially decreased the bacterial load | efficacy margin mean systemic exposure of human oral dose to IC90 [2]: 8 fold | MIC (all targeted strains): ≤ 0.5 µg/mL | pEC50 (SARS-CoV): > 7.00 | inhibition of Cl- channel TMEM 116F (TMEM 116F): potent inhibitor | Cmax (in vivo; systemic exposure Cmax (mean)): 577 ng/mL | Cmax (in vivo; systemic exposure Cmax (range)): 217 to 803 ng/mL | inhibition of Cl- channel TMEM16A (TMEM16A): potent inhibitor

O=C(Nc1cc(Cl)cc(Cl)c1O)c1c(O)c(Cl)cc(Cl)c1Cl [oxyclozanide, Oxyclozanide]
efficiency in reducing bacterial load ([1]; comparison among formulations): highest efficiency in reducing bacterial load of S. aureus | bacterial load in repeated spot test, API in DMSO [1]: substantially decreased the bacterial load
